According to US7879795B2, “Enhancement of tigecycline potency using efflux pump inhibitors” (Mpex Pharmaceuticals, Inc., priority 2004, dated 2011):

Columns and labels:
[1] = Tissue levels in rat six-hour after 8.4 mg/kg IV bolus; format: in vivo; details: rat kidney, liver and lung; 8.4 mg/kg IV bolus; in words
Protocol: Tissue levels of compounds 1, 2, 3 and 4 were evaluated in kidney, liver and lung six-hour after 8.4 mg/kg IV bolus administration. FIG. 13 depicts the levels as a function of time.
Compound 67, which is the expected metabolite of proteolytic intracellular degradation of compound 3, was detected in rat tissues after IV infusion, confirming the tissue-specific degradation of compound 3 (Tables 9A, B).

[2] = tested on: P. aeruginosa, PAM1723, overexpressing the MexAB-OprM efflux pump; experiment: Levofloxacin potentiation checkerboard assay (broth microdilution); format: cell-based
Protocol: Stock solution was stored at −80° C.
The checkerboard assay was performed in microtiter plates. […] EPIs were diluted in the y axis, each row containing an equal concentration of an EPI. The result of these manipulations was that each well of the microtiter plate contains a unique combination of concentrations of the two agents. The assay was performed in MHB with a final bacterial inoculum of 5×10^5 CFU/ml (from an early-log phase culture). Microtiter plates were incubated during 20 h at 35° C. and were read using a microtiterplate reader (Molecular Devices) at 650 nm as well as visual observation using a microtiter plate-reading mirror.

[3] = Rat serum pharmacokinetics after IV bolus administration; format: in vivo; details: in words
Protocol: Rat serum pharmacokinetics of compounds 1, 2, 3 and 4 was evaluated after IV bolus administration (FIG. 11). FIG. 11 depicts the serum concentrations as a function of time.

[4] = In vitro stability in rat serum and tissue homogenates (LC/MS/MS); format: in vitro ADME
Protocol: To test the stability of the compounds in vitro, samples were prepared and analyzed by LC/MS/MS according to the following procedure.
Homogenization: A chunk of fresh tissue was weighed and mixed with saline at 1:1 ratio (w/v) in a 12×75 mm polypropylene round bottom tube. The mixture was homogenized with a Polytron homogenizer (on ice, 3×10 seconds with 10 second intervals at the setting of 7).
Incubation and TCA-precipitation: An appropriate amount of a tissue homogenate was pre-warmed at 37° C. for 2 minutes in an Eppendorf tube. The compound to be tested was added to the tube to a final concentration of 2 μg/ml, mixed, and a 60 μl aliquot was immediately taken (as 0 hour sample) and mixed with 120 μl of 4% TCA (trichloroacetic acid) in an Eppendorf tube. The temperature of the tube containing the rest of the tissue sample was returned to 37° C. for incubation. Later, samples were taken as scheduled and mixed with TCA as described above. Plasma and lavage samples were directly incubated with the compounds without addition of saline and homogenization.
LC/MS/MS sample vial preparation: TCA-precipitated sample tubes were vortexed for 30 seconds, centrifuged in a microfuge at top speed (13.2 k rpm) for 5 minutes. The supernatant was collected. The pH was neutralized to about 3.5 with ammonium acetate buffer. The sample (45 μl) was transferred to a glass LC/MS/MS vial (Kimble, 11 mm, 1.5 ml) and 5 μl of an internal standard was added to a final concentration of 500 ng/ml. LC/MS/MS analysis was performed in Chemistry Department of San Diego State University.
LC/MS/MS protocol: Thermo-Finnigan TSQ Quantum triple sector mass spectrometer with electrospray (ESI) ionization was used to analyze the samples. The operation conditions were: Mobile phase of pH 3.00 water/formic acid: acetonitrile-methanol (45%:5%:50% by volume); Thermo-Keystone Betabasic C-18 column (2.1 mm×50 mm) operated at 0.100 mL/min.
Many proteases responsible for degrading EPI compounds are located in […]. Lysozymes typically have an acidic pH (about 4.8-5), whereas the pH in tissue homogenates that were prepared was higher (kidney, pH 6.8; liver, pH 6.6; and lung, pH 7.5). To test the effect of tissue homogenates closer to physiological conditions, the pH was lowered to about 6 by adding acetic acid to the tissue homogenates and compound stability was tested. FIG. 2 depicts the stability of compounds 1 and 3 at different pH. […] The pH-dependent degradation of compound 3 was especially evident in kidney homogenates.
FIG. 4 is a bar graph depicting the stability of compound 3 in the supernatant and pellet of kidney tissue homogenates.

For `NCCC[C@H](N)C(=O)N[C@@H](CCc1ccccc1)C(=O)Nc1cnc2ccccc2c1` [Compound 2, 2-(S),5-Diamino-pentanoic acid [3-phenyl-1-(S)-(quinolin-3-ylcarbamoyl)-propyl]-amide], the “tissue levels at 6 hours after IV injection” value [1] was “below the detectable level”, the “Antibiotic (levofloxacin) MIC in the presence of EPI” value (from here on “Antibiotic (levofloxacin) MIC”) ([2]; EPI 0 μg/ml (levofloxacin alone)) was 2 µg/mL and the “Antibiotic (levofloxacin) MIC” value ([2]; EPI 1.25 μg/ml) was 2 µg/mL. The “Antibiotic (levofloxacin) MIC” value ([2]; EPI 5 μg/ml) was 2 µg/mL, the “Antibiotic (levofloxacin) MIC” value ([2]; EPI 10 μg/ml) was 1 µg/mL and the “Antibiotic (levofloxacin) MIC” value ([2]; EPI 20 μg/ml) was 0.125 µg/mL. For the same compound, the “Antibiotic (levofloxacin) MIC” value ([2]; EPI 40 μg/ml) was 0.06 µg/mL, the “Antibiotic (levofloxacin) MIC” value ([2]; EPI 80 μg/ml) was 0.03 µg/mL and the “Antibiotic (levofloxacin) MIC” value ([2]; EPI […]) was 2 µg/mL. The MPC8 ([2]; EPI concentration necessary to increase susceptibility to levofloxacin eight-fold) was 20 µg/mL, the “serum levels after IV bolus administration” value [3] was “decreased more rapidly” and the “stability in rat serum” value ([4]; in words) was “intermediately stable”. The “compound left in serum after 1.5 hr of incubation” value ([4]; rat serum) was “about half”, the “compound left in serum after 4 hr” value ([4]; rat serum) was “almost all gone” and the “compound left in kidney and liver after the first 40 minutes of incubation” value ([4]; rat tissue homogenates) was “Hardly any was left”. The “stability in kidney and liver” value ([4]; rat tissue homogenates, in words) was “very unstable”.
